# Patent publication US20250277030A1, “ANTI-NAPI2B ANTIBODIES AND METHODS OF USE” (Zymeworks BC Inc., priority 2022, published 2025)
# Tests used:
# cynomolgus NaPi2b = test: Flow cytometry binding to HEK293-6e cells transfected with cynomolgus NaPi2b (Example 5); conditions: transfected HEK293-6e cells
# Experimental: (§1) The binding cross-reactivity of humanized antibody variant v29456 to human, cynomolgus and mouse NaPi2b was assessed by flow cytometry using HEK293-6e transfected cells.
# (§2) Briefly, HEK293-6e cells were transfected for ˜24 hours to transiently express human NaPi2b, cynomolgus or mouse NaPi2b, at 1 μg of DNA per 1 million cells. Following transfection, 50,000 cells per well were seeded in V-bottom 96-well plates and incubated with 200 nM of primary antibody for 18-24 hours at 4° C. to prevent internalization. Post-incubation, cells were washed and stained with anti-Human IgG Fc AF647 conjugate (Jackson Immuno Research Labs, West Grove, PA, Cat. No. 109-605-098, Lot. No. 124868) at 4° C. for 1 hour. Following staining and washing, fluorescence was detected by flow cytometry on BD LSRFortessa™ Cell Analyzer (BD Biosciences, Franklin Lake, NJ) with 10,000 minimum events collected per well. The AF647/APC-A GeoMean (fluorescence signal geometric mean, proportional to anti-Human AF647 binding) was calculated for the live singlet cell population for each primary antibody using FlowJo™ v8 software (BD Biosciences, Franklin Lake, NJ). The Bmax and Kd of each primary antibody were calculated using GraphPad Prism Version 9 (GraphPad Software, San Diego, CA)
# mouse NaPi2b = biological target: T1, mouse NaPi2b (Mus musculus, UniProt Q9DBP0); test: Flow cytometry binding to HEK293-6e cells transfected with mouse NaPi2b (Example 5); conditions: transfected HEK293-6e cells
# T1 construct: expressed in transfected cells; host or cells: HEK293-6e
# T1 sequence (Q9DBP0 1-697): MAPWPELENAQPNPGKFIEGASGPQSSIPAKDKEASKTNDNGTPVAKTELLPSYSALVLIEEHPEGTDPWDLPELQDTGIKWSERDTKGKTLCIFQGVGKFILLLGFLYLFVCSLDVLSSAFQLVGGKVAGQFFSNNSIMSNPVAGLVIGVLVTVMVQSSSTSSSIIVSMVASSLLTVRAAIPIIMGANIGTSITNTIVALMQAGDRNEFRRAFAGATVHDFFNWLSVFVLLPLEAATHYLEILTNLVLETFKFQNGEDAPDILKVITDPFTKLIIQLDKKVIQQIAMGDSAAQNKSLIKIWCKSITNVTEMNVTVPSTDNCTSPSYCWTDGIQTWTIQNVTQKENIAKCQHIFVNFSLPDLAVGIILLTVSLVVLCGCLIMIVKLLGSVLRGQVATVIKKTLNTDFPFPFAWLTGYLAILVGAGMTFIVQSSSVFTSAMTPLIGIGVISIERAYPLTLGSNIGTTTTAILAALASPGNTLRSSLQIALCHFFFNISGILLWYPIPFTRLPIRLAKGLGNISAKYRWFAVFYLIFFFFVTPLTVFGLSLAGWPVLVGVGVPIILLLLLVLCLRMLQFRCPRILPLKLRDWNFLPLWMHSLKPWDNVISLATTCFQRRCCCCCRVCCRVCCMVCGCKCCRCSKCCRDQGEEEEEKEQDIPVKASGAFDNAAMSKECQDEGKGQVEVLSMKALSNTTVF
# Experimental: as §1, §2
# Sequence of cynomolgus NaPi2b (as listed by the source): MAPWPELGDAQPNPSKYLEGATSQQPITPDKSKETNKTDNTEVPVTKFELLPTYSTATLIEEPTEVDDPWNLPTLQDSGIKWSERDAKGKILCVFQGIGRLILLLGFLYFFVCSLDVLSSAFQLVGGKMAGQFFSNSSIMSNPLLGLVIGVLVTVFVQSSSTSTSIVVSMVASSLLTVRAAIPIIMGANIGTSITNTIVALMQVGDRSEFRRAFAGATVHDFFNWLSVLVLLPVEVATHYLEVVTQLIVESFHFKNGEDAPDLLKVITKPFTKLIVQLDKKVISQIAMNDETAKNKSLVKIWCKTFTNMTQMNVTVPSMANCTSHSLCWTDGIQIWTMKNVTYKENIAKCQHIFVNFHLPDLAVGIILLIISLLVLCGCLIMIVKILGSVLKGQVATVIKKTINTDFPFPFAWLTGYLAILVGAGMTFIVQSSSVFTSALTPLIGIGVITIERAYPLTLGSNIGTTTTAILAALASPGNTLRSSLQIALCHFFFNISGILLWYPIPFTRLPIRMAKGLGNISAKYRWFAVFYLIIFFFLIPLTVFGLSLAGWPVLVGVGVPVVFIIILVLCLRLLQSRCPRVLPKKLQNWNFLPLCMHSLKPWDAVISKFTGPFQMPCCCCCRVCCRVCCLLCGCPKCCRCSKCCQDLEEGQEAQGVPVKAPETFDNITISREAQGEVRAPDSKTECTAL
substance,measurement,setting,value
"v22277: anti-RSV antibody palivizumab, negative control; has a heterodimeric Fc [reference compound]","Binding to cynomolgus NaPi2b, in words",cynomolgus NaPi2b,did not bind
same,"Binding to mouse NaPi2b, in words",mouse NaPi2b,did not bind
